Reference: the supplement of paper PMC10307832

What was measured:
Experiment in all cases: relative viability (nuclei count vs DMSO), 5 days (fraction); higher = more cells survive
[1] = tested on: NCI-H650
Method in brief: (§1)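 For relative viability, nuclei counts in treated wells were divided by those in vehicle wells. Lung cancer cell lines had been pin-tool dosed in 1536-well plates the day after seeding and cultured for 5 days, then fixed and stained in one step (final 0.05% Triton X-100, 1% formaldehyde, 1 ug/ml Hoechst) and imaged at 4×. Doses were one drug alone or a fixed anchor-drug dose plus five library-drug doses (not always all listed) in √10 steps, and values are duplicate-plate medians.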

[2] = tested on: NCI-H1755
Method in brief: as §1

[3] = tested on: LXF-289
Method in brief: as §1

[4] = tested on: NCI-H1395
Method in brief: as §1

[5] = tested on: NCI-H1944
Method in brief: as §1

[6] = tested on: A-427
Method in brief: as §1

[7] = tested on: LU99A
Method in brief: as §1

[8] = tested on: NCI-H2126
Method in brief: as §1

[9] = tested on: NCI-H460
Method in brief: as §1

[10] = tested on: LOU-NH91
Method in brief: as §1

[11] = tested on: NCI-H1666
Method in brief: as §1

[12] = tested on: NCI-H322M
Method in brief: as §1

[13] = tested on: PC-3 [JPC-3]
Method in brief: as §1

[14] = tested on: SK-LU-1
Method in brief: as §1

[15] = tested on: NCI-H2170
Method in brief: as §1

[16] = tested on: NCI-H1915
Method in brief: as §1

[17] = tested on: HARA
Method in brief: as §1

[18] = tested on: NCI-H23
Method in brief: as §1

[19] = tested on: NCI-H441
Method in brief: as §1

[20] = tested on: NCI-H1793
Method in brief: as §1

[21] = tested on: NCI-H2023
Method in brief: as §1

[22] = tested on: BEN
Method in brief: as §1

[23] = tested on: LCLC-97TM1
Method in brief: as §1

O=c1[nH]c2ccccc2n1C1CCN(CCCC(c2ccc(F)cc2)c2ccc(F)cc2)CC1 [Pimozide] + CS(=O)(=O)N1CCN(Cc2cc3nc(-c4cccc5[nH]ncc45)nc(N4CCOCC4)c3s2)CC1 [Pictilisib] (partner 1 µM)
relative viability ([1]; first compound 0.08 µM): 0.851 | relative viability ([1]; first compound 0.253 µM): 0.852 | relative viability ([1]; first compound 0.8 µM): 0.878 | relative viability ([1]; first compound 2.53 µM): 0.92 | relative viability ([1]; first compound 8 µM): 1.09 | relative viability ([2]; first compound 0.08 µM): 0.438 | relative viability ([2]; first compound 0.253 µM): 0.441 | relative viability ([2]; first compound 0.8 µM): 0.418 | relative viability ([2]; first compound 2.53 µM): 0.368 | relative viability ([2]; first compound 8 µM): 0.307 | relative viability ([3]; first compound 0.08 µM): 0.75 | relative viability ([3]; first compound 0.253 µM): 0.799 | relative viability ([3]; first compound 0.8 µM): 0.781 | relative viability ([3]; first compound 2.53 µM): 0.744 | relative viability ([3]; first compound 8 µM): 0.719 | relative viability ([4]; first compound 0.08 µM): 0.647 | relative viability ([4]; first compound 0.253 µM): 0.598 | relative viability ([4]; first compound 0.8 µM): 0.634 | relative viability ([4]; first compound 2.53 µM): 0.679 | relative viability ([4]; first compound 8 µM): 0.681 | relative viability ([5]; first compound 0.08 µM): 0.331 | relative viability ([5]; first compound 0.253 µM): 0.337 | relative viability ([5]; first compound 0.8 µM): 0.325 | relative viability ([5]; first compound 2.53 µM): 0.35 | relative viability ([5]; first compound 8 µM): 0.33 | relative viability ([6]; first compound 0.08 µM): 0.723 | relative viability ([6]; first compound 0.253 µM): 0.729 | relative viability ([6]; first compound 0.8 µM): 0.538 | relative viability ([6]; first compound 2.53 µM): 0.68 | relative viability ([6]; first compound 8 µM): 0.668 | relative viability ([7]; first compound 0.08 µM): 0.344 | relative viability ([7]; first compound 0.253 µM): 0.284 | relative viability ([7]; first compound 0.8 µM): 0.314 | relative viability ([7]; first compound 2.53 µM): 0.302 | relative viability ([7]; first compound 8 µM): 0.334 | relative viability ([8]; first compound 0.08 µM): 0.437 | relative viability ([8]; first compound 0.253 µM): 0.468 | relative viability ([8]; first compound 0.8 µM): 0.512 | relative viability ([8]; first compound 2.53 µM): 0.499 | relative viability ([8]; first compound 8 µM): 0.539 | relative viability ([9]; first compound 0.08 µM): 0.236 | relative viability ([9]; first compound 0.253 µM): 0.385 | relative viability ([9]; first compound 0.8 µM): 0.386 | relative viability ([9]; first compound 2.53 µM): 0.353 | relative viability ([9]; first compound 8 µM): 0.366 | relative viability ([10]; first compound 0.08 µM): 0.476 | relative viability ([10]; first compound 0.253 µM): 0.489 | relative viability ([10]; first compound 0.8 µM): 0.521 | relative viability ([10]; first compound 2.53 µM): 0.546 | relative viability ([10]; first compound 8 µM): 0.509 | relative viability ([11]; first compound 0.08 µM): 0.323 | relative viability ([11]; first compound 0.253 µM): 0.512 | relative viability ([11]; first compound 0.8 µM): 0.439 | relative viability ([11]; first compound 2.53 µM): 0.385 | relative viability ([11]; first compound 8 µM): 0.465 | relative viability ([12]; first compound 0.253 µM): 0.509 | relative viability ([12]; first compound 0.8 µM): 0.478 | relative viability ([12]; first compound 2.53 µM): 0.482 | relative viability ([12]; first compound 8 µM): 0.382 | relative viability ([13]; first compound 0.253 µM): 0.695 | relative viability ([13]; first compound 0.8 µM): 0.654 | relative viability ([13]; first compound 2.53 µM): 0.698 | relative viability ([13]; first compound 8 µM): 0.686 | relative viability ([14]; first compound 0.08 µM): 0.643 | relative viability ([14]; first compound 0.253 µM): 0.566 | relative viability ([14]; first compound 0.8 µM): 0.551 | relative viability ([14]; first compound 2.53 µM): 0.436 | relative viability ([14]; first compound 8 µM): 0.469 | relative viability ([15]; first compound 0.08 µM): 0.308 | relative viability ([15]; first compound 0.253 µM): 0.382 | relative viability ([15]; first compound 0.8 µM): 0.299 | relative viability ([15]; first compound 2.53 µM): 0.326 | relative viability ([15]; first compound 8 µM): 0.236 | relative viability ([16]; first compound 0.08 µM): 0.972 | relative viability ([16]; first compound 0.253 µM): 0.892 | relative viability ([16]; first compound 0.8 µM): 0.524 | relative viability ([16]; first compound 2.53 µM): 0.889 | relative viability ([16]; first compound 8 µM): 0.796 | relative viability ([17]; first compound 0.08 µM): 0.252 | relative viability ([17]; first compound 0.253 µM): 0.423 | relative viability ([17]; first compound 0.8 µM): 0.595 | relative viability ([17]; first compound 2.53 µM): 0.351 | relative viability ([17]; first compound 8 µM): 0.368 | relative viability ([18]; first compound 0.08 µM): 0.589 | relative viability ([18]; first compound 0.253 µM): 0.431 | relative viability ([18]; first compound 0.8 µM): 0.448 | relative viability ([18]; first compound 2.53 µM): 0.429 | relative viability ([18]; first compound 8 µM): 0.468 | relative viability ([19]; first compound 0.08 µM): 0.593 | relative viability ([19]; first compound 0.253 µM): 0.445 | relative viability ([19]; first compound 0.8 µM): 0.491 | relative viability ([19]; first compound 2.53 µM): 0.447 | relative viability ([19]; first compound 8 µM): 0.344 | relative viability ([20]; first compound 0.08 µM): 0.296 | relative viability ([20]; first compound 0.253 µM): 0.302 | relative viability ([20]; first compound 0.8 µM): 0.311 | relative viability ([20]; first compound 2.53 µM): 0.357 | relative viability ([20]; first compound 8 µM): 0.275 | relative viability ([21]; first compound 0.08 µM): 0.214 | relative viability ([21]; first compound 0.253 µM): 0.24 | relative viability ([21]; first compound 0.8 µM): 0.212 | relative viability ([21]; first compound 2.53 µM): 0.223 | relative viability ([21]; first compound 8 µM): 0.202 | relative viability ([22]; first compound 0.08 µM): 0.627 | relative viability ([22]; first compound 0.253 µM): 0.565 | relative viability ([22]; first compound 0.8 µM): 0.583 | relative viability ([22]; first compound 2.53 µM): 0.542 | relative viability ([22]; first compound 8 µM): 0.595 | relative viability ([23]; first compound 0.08 µM): 0.194 | relative viability ([23]; first compound 0.253 µM): 0.183 | relative viability ([23]; first compound 0.8 µM): 0.225 | relative viability ([23]; first compound 2.53 µM): 0.18 | relative viability ([23]; first compound 8 µM): 0.119
